Source: article PMC8234273, “A Sesquiterpene Synthase from the Endophytic Fungus Serendipita indica Catalyzes Formation of Viridiflorol” (Biomolecules, 2021)

Molecular target: T1, SiTPS (Serendipita indica, UniProt G4TNA6)
T1 construct: gene PIIN_06735; full coding region from S. indica cDNA, C-terminal His-tag (pET28b+), E. coli C41, His SpinTrap purified and desalted
T1 sequence (G4TNA6 1-515): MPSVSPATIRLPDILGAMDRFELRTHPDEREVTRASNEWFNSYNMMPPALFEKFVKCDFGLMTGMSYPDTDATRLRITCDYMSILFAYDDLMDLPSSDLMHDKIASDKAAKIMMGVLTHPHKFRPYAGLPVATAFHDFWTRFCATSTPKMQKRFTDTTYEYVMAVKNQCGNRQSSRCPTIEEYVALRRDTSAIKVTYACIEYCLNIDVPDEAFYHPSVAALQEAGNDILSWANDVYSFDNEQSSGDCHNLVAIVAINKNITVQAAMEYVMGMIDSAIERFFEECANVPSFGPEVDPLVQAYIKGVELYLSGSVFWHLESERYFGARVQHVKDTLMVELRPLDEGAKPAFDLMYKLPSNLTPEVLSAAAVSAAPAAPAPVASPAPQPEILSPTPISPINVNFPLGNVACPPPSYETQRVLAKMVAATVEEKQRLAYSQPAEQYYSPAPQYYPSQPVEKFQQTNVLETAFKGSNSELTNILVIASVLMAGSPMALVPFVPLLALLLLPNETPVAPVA
Test: in vitro terpene synthase assay, GC-MS of hexane extract
Assay type: biochemical
Settings: 10 mM MgCl2, 100 mM KCl, 5 mM DTT, 10% glycerol, 50 mM HEPES pH 7.2, 30 °C, 1 h

In the case of CC(C)=CCC/C(C)=C/CC/C(C)=C/COP(=O)(O)OP(=O)(O)O [E,E-FPP], the “in vitro terpene synthase assay, GC-MS of hexane extract” value is reported as “Hexane extracts showed activity only when SiTPS was incubated with E,E-FPP”.
